In PMC4779111, “A Human Renal Proximal Tubule Cell Line with Stable Organic Anion Transporter 1 and 3 Expression Predictive for Antiviral-Induced Toxicity” (The AAPS Journal, 2016):
Where a name gives a salt, the structure may show the parent alone. Read-outs that look alike come from different tables or passages of the source.

T1: OAT1 (Homo sapiens, UniProt Q4U2R8)
T1 sequence (Q4U2R8 1-563): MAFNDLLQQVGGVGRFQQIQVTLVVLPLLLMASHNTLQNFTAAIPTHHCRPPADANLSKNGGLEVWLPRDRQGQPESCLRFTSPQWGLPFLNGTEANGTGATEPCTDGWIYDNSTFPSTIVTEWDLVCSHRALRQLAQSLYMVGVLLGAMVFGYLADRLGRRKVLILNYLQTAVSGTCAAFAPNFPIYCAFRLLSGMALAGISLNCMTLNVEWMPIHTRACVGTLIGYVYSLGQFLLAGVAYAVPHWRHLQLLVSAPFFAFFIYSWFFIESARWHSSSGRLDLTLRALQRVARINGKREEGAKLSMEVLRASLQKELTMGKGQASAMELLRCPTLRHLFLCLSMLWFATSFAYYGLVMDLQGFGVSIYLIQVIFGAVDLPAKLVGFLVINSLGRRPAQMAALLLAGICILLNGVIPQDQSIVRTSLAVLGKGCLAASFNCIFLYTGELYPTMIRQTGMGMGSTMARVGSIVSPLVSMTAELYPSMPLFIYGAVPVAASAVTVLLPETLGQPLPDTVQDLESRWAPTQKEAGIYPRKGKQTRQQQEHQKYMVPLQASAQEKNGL

T2: OAT3 (Homo sapiens, UniProt Q8TCC7)
T2 sequence (Q8TCC7 1-542): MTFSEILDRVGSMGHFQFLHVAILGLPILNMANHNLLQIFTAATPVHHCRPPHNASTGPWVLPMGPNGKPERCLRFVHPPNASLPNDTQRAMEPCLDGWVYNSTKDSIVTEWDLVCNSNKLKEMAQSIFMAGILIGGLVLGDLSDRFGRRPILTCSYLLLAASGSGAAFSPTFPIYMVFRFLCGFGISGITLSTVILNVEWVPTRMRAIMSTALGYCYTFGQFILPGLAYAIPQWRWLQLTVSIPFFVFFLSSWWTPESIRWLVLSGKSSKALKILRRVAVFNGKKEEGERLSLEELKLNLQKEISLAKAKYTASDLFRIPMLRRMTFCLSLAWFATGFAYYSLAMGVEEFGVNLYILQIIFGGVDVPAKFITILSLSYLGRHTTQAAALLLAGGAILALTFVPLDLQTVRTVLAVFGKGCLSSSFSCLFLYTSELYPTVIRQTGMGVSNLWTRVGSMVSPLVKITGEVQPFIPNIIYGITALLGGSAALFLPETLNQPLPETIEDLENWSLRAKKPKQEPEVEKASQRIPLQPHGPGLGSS


How the values were obtained:
[1] = MTT viability assay, ciPTEC-OAT1; format: cell-based, human; conditions: human, ciPTEC-OAT1 cells (monolayers, 96-well); for IC50 at 24 h: read-out: IC50 on cell viability (MTT), 24 h; for IC50 at 72 h: read-out: IC50 on cell viability (MTT), 72 h
ciPTEC-OAT1 = assay: MTT viability assay, ciPTEC-OAT1; format: cell-based, human; conditions: for Cell viability (MTT): ciPTEC-OAT1, 1 mM, 48 h, serum-free medium; for Cell viability (MTT), concentration and time dependence: ciPTEC-OAT1, 24, 48 and 72 h
ciPTEC-OAT3 = assay: MTT viability assay, ciPTEC-OAT3; format: cell-based, human; conditions: for Cell viability (MTT), concentration and time dependence: ciPTEC-OAT3, 24, 48 and 72 h
Procedure: Cell toxicity was analyzed further in presence of MRP and BCRP efflux inhibitors MK571 (5 μM) and KO143 (10 μM).

OAT1 [2] = molecular target: T1, OAT1; set-up: method as in PMID 23856525; conditions: substrate PAH, HeLa-OAT1; read-out: IC50 (literature); cited from earlier work
[3] = plasma, maximal free plasma concentration, 47 (zidovudine), cited from earlier work
hOAT1-CHO and HEK-OAT1 = conditions: cited from earlier work
[4] = set-up: method as in PMID 19445515; conditions: cited from earlier work
OAT1 [5] = molecular target: T1, OAT1; assay: Inhibition of OAT-mediated fluorescein uptake in ciPTEC-OAT1; format: cell-based; set-up: host or cells: ciPTEC (human conditionally immortalized proximal tubule epithelial cells), lentiviral transduction; conditions: for Effect on OAT-mediated fluorescein uptake (in words): ciPTEC-OAT1, fluorescein 1 μM, 10 min; for DDI index Cmax/IC50: ciPTEC-OAT1, with the second-listed (higher) Cmax
Procedure: (§1) All chemicals were obtained from Sigma, unless stated otherwise. Uptake was stopped by washing three times with ice-cold HBSS (4°C).
(§2) Non-linear regression with variable slope constraining the top to 100% was used to fit the data after background subtraction with GraphPad Prism. Statistics was performed by two-way ANOVA (two-tailed, α = 0.05) using GraphPad Prism as well. All data is presented as mean ± SEM of at least three separate experiments (n = 3) performed in triplicate, unless stated otherwise.

OAT3 [6] = molecular target: T2, OAT3; assay: Inhibition of OAT-mediated fluorescein uptake in ciPTEC-OAT3
Procedure: as §1, §2

OAT3 [7] = molecular target: T2, OAT3; conditions: substrate estrone sulfate, Xenopus-OAT3; read-out: IC50 (literature); cited from earlier work
OAT1 [8] = molecular target: T1, OAT1; assay: OAT1-mediated fluorescein uptake kinetics in ciPTEC-OAT1; format: cell-based; set-up: host or cells: ciPTEC (human conditionally immortalized proximal tubule epithelial cells), lentiviral transduction
Procedure: as §1

OAT3 [9] = molecular target: T2, OAT3; assay: OAT3-mediated fluorescein uptake kinetics in ciPTEC-OAT3; format: cell-based; set-up: host or cells: ciPTEC (human conditionally immortalized proximal tubule epithelial cells), lentiviral transduction; conditions: n = 4
Procedure: as §1

[10] = substrate: O=C1OC2(c3ccc(O)cc3Oc3cc(O)ccc32)c2ccccc21; assay: cells, lysate or membranes; conditions: other: fluorescein uptake, 10 min, Michaelis-Menten with linear diffusion, mean ± SEM, n = 4; 37.0 °C
[11] = first-listed (lower) value per drug, ref 40 (adefovir), 42 (cidofovir), 45 (tenofovir)
[12] = second-listed (higher) value per drug, ref 41 (adefovir), 43 (cidofovir), 46 (tenofovir)
[13] = 120 h, OAT1 overexpression cells, read-out: IC50 on cell viability (literature), 120 h
[14] = read-out: IC50 on cell viability (literature), 48 h, OAT1 overexpression cells

Molecule | IC50 at 48 h [1] [µM] | IC50 at 24 h [1] [µM] | IC50 at 72 h [1] [µM] | Cell viability (MTT) (ciPTEC-OAT1) | Cell viability (MTT), concentration and time dependence (ciPTEC-OAT1) | Cell viability (MTT), concentration and time dependence (ciPTEC-OAT3) | Cmax [3, 11] [µM] | Cmax [3, 12] [µM] | IC50 (hOAT1-CHO and HEK-OAT1; [13]) [µM] | IC50 (hOAT1-CHO and HEK-OAT1; [14]) [µM] | Renal excretion of unchanged drug (in words) [4] | IC50 (OAT1 [5]) [µM] | Effect on OAT-mediated fluorescein uptake (in words) (OAT1 [5]) | also measured
Nc1ncnc2c1ncn2CCOCP(=O)(O)O [Adefovir, adefovir] | 303 ± 38 | 462 ± 52 | 230 ± 37 | significantly affected cell viability | concentration- and time-dependent decrease in viability | less pronounced | 1.6 | 38.8 | 1.4 ± 0.7 | 0.22 ± 0.08 | largely excreted unchanged by the kidneys | 23 ± 4 | Concentration-dependent inhibition | IC50 (OAT1 [2]): 8.1 µM; DDI index Cmax/IC50 (OAT1 [5]): 4.2
Nc1ccn(C[C@@H](CO)OCP(=O)(O)O)c(=O)n1 [Cidofovir, cidofovir] | 130 ± 58 | 613 ± 384 | 69 ± 2 | significantly affected cell viability | concentration- and time-dependent decrease in viability | less pronounced | 15.8 | 26.3 | 3 ± 1 | 0.5 ± 0.2 | largely excreted unchanged by the kidneys | 71 ± 34 | Concentration-dependent inhibition | –
C[C@]12CC[C@@H]3c4ccc(OS(=O)(=O)O)cc4CC[C@H]3[C@@H]1CCC2=O [Estrone sulfate, estrone sulfate] | – | – | – | – | – | – | – | – | – | – | – | – | – | IC50 (OAT3 [6]; read-out: IC50 of fluorescein uptake, ciPTEC-OAT3, fluorescein 1 μM, 10 min, HBSS 37°C, mean ± SEM, n = 4, cimetidine: apparent IC50 due to partial inhibition): 2.1 ± 0.3 µM; IC50 (OAT3 [7]): 3 µM
O=C1OC2(c3ccc(O)cc3Oc3cc(O)ccc32)c2ccccc21 [Fluorescein, fluorescein] | – | – | – | – | – | – | – | – | – | – | – | – | – | Vmax (OAT1 [8]; fluorescein uptake, 10 min, n = 4): 695 ± 84 RFU; Fluorescein affinity for OAT1 relative to OAT3 (OAT1 [8]; from Km values of Table I): approximately fivefold higher; Kd (OAT1 [8]; passive diffusion component kd of fluorescein uptake, n = 4): 2.4 ± 1.2 RFU*L/μmol; Vmax (OAT3 [9]; fluorescein uptake, 10 min): 384 ± 103 RFU; Kd (OAT3 [9]; passive diffusion component kd of fluorescein uptake): 4.3 ± 0.9 RFU*L/μmol
Nc1ccc(C(=O)NCC(=O)O)cc1 [Para-aminohippuric acid, para-aminohippuric acid] | – | – | – | – | – | – | – | – | – | – | – | – | – | IC50 (OAT3 [6]): 152 ± 3 µM; Fluorescein uptake by flow cytometry in presence of inhibitor (OAT3 [6]; transduced ciPTEC-OAT3, fluorescein 1 μM, 10 min, inhibitor 100 μM): sensitive to para-aminohippuric acid-induce inhibition
C[C@H](Cn1cnc2c(N)ncnc21)OCP(=O)(O)O [Tenofovir, tenofovir] | 189 ± 48 | 114 ± 25 | 223 ± 67 | significantly affected cell viability | concentration- and time-dependent decrease in viability | less pronounced | 0.52 | 0.72 | 21 ± 7 | 10 ± 2 | largely excreted unchanged by the kidneys | 42 ± 8 | Concentration-dependent inhibition | Cell viability (MTT) (ciPTEC-OAT3; ciPTEC-OAT3, 1 mM, 48 h, serum-free medium): slightly decreased; IC50 (OAT1 [2]): 29.3 µM; DDI index Cmax/IC50 (OAT1 [5]): 0.019
OAT1 (Homo sapiens) (protein) MAFNDLLQQVGGVGRFQQIQVTLVVLPLLLMASHNTLQNFTAAIPTHHCRPPADANLSKNGGLEVWLPRDRQGQPESCLRFTSPQWGLPFLNGTEANGTGATEPCTDGWIYDNSTFPSTIVTEWDLVCSHRALRQLAQSLYMVGVLLGAMVFGYLADRLGRRKVLILNYLQTAVSGTCAAFAPNFPIYCAFRLLSGMALAGISLNCMTLNVEWMPIHTRACVGTLIGYVYSLGQFLLAGVAYAVPHWRHLQLLVSAPFFAFFIYSWFFIESARWHSSSGRLDLTLRALQRVARINGKREEGAKLSMEVLRASLQKELTMGKGQASAMELLRCPTLRHLFLCLSMLWFATSFAYYGLVMDLQGFGVSIYLIQVIFGAVDLPAKLVGFLVINSLGRRPAQMAALLLAGICILLNGVIPQDQSIVRTSLAVLGKGCLAASFNCIFLYTGELYPTMIRQTGMGMGSTMARVGSIVSPLVSMTAELYPSMPLFIYGAVPVAASAVTVLLPETLGQPLPDTVQDLESRWAPTQKEAGIYPRKGKQTRQQQEHQKYMVPLQASAQEKNGL | – | – | – | – | – | – | – | – | – | – | – | – | – | Km [10]: 0.8 ± 0.1 µM
OAT3 (Homo sapiens) (protein) MTFSEILDRVGSMGHFQFLHVAILGLPILNMANHNLLQIFTAATPVHHCRPPHNASTGPWVLPMGPNGKPERCLRFVHPPNASLPNDTQRAMEPCLDGWVYNSTKDSIVTEWDLVCNSNKLKEMAQSIFMAGILIGGLVLGDLSDRFGRRPILTCSYLLLAASGSGAAFSPTFPIYMVFRFLCGFGISGITLSTVILNVEWVPTRMRAIMSTALGYCYTFGQFILPGLAYAIPQWRWLQLTVSIPFFVFFLSSWWTPESIRWLVLSGKSSKALKILRRVAVFNGKKEEGERLSLEELKLNLQKEISLAKAKYTASDLFRIPMLRRMTFCLSLAWFATGFAYYSLAMGVEEFGVNLYILQIIFGGVDVPAKFITILSLSYLGRHTTQAAALLLAGGAILALTFVPLDLQTVRTVLAVFGKGCLSSSFSCLFLYTSELYPTVIRQTGMGVSNLWTRVGSMVSPLVKITGEVQPFIPNIIYGITALLGGSAALFLPETLNQPLPETIEDLENWSLRAKKPKQEPEVEKASQRIPLQPHGPGLGSS | – | – | – | – | – | – | – | – | – | – | – | – | – | Km [10]: 3.7 ± 0.5 µM
